From patent US20210212998A1, “Combinations of Tie-2 Activators and Prostaglandins and Uses Thereof” (Aerpio Pharmaceuticals, Inc., priority 2020, published 2021)
Like-named read-outs stand apart in the source and are kept apart here.

Key:
[1] = cited from earlier work
[2] = tested on: human subjects with OHT/POAG; experiment: Phase 1b trial: conjunctival hyperemia, safety and tolerability; assay type: in vivo
Description: A randomized, double-masked Phase 1b trial was designed to assess safety, tolerability, and efficacy of a Tie-2 activator (Compound 1) as an adjunctive therapy to prostaglandins for treatment of ocular hypertension (OHT) or primary open angle glaucoma (POAG). The study assessed the effects of increasing concentrations of Compound 1 dosed topically as eye drops (5 mg/mL QD, 15 mg/mL QD, 40 mg/mL QD, and 40 mg/mL BID) in 4 sequential cohorts of 12 subjects, randomized 3:1 to receive Compound 1 or placebo, for 7 days. Conjunctival hyperemia and IOP were assessed at 0 (pre-dose), 2 hours, 4 hours, and 8 hours post-dose on Day −1 (baseline), Day 1 (first day of Compound 1 dosing), and Day 7 (last day of dosing).
In this study, 36 human subjects with OHT/POAG and baseline IOP measurements between 17 and 27 mmHg (inclusive) undergoing once-daily prostaglandin therapy were recruited. Subjects were randomized 3:1 to once-daily, 40 mg/mL Compound 1 (27 subjects), or placebo (9 subjects) in the morning (AM) for 7 days while continuing once-daily prostaglandin therapy in the evening (PM). Compound 1 (40 mg/mL) was a sodium salt formulated in 15% HPβCD and 1% mannitol. The Compound 1 ophthalmic solution was adjusted to a pH of 6.5-7.5 with 1N hydrochloric acid and/or IN sodium hydroxide prior to sterile filtration. Placebo was the same solution as the vehicle for the Compound 1 ophthalmic solution. Each dose of study medication (Compound 1 or placebo) was administered as one drop (30 μL) of dosing solution per eye in each subject. Compound 1 was administered to each eye (except on Day 1 and 2 in Cohort 1 in which only the right eye received Compound 1) by the topical ocular route using a dropper bottle to deliver eye drops. Compound 1 was administered for 7 days as a single morning dose daily. […]
IOP was measured pre-dose (0 hr), 2 hrs, 4 hrs, and 8 hrs post-dose on Day −1, Day 1, and Day 7. […] Visual field testing, conjunctival hyperemia and IOP were also assessed. IOP was assessed by Goldmann applanation tonometry in both eyes at screening, baseline, and during treatment as indicated. […]

[3] = tested on: patients with mean baseline intraocular pressure of 24-25 mmHg; details: cited from earlier work

O=C(O)CCC/C=C\C[C@@H]1[C@@H](CC[C@@H](O)CCc2ccccc2)[C@H](O)C[C@@H]1O [acid of latanoprost]
t1/2, elimination from human plasma ([1]; after both intravenous and topical administration): 17 min
Systemic clearance ([1]; human): approximately 7 mL/min/kg

COC(=O)N[C@@H](Cc1ccccc1)C(=O)N[C@@H](Cc1ccc(NS(=O)(=O)O)cc1)c1csc(-c2cccs2)n1 [Compound 1]
change in hyperemia over baseline ([2]; 2 hours post-dose): small increase
tolerability of topical ocular administration ([2]; 7 day study): well-tolerated
time by which hyperemia returned to baseline levels ([2]; post-dose): ≤ 8 h

CC(C)OC(=O)CCC/C=C\C[C@@H]1[C@@H](CC[C@@H](O)CCc2ccccc2)[C@H](O)C[C@@H]1O [Latanoprost, latanoprost]
reductions in IOP ([3]; baseline IOP 24-25 mmHg, treated for 6 months, multi-center randomized controlled trials): 6-8 mmHg
start of reduction of the intraocular pressure after administration ([3]; human, in vivo): 3 to 4 h
time at which the maximum effect is reached ([3]; human, in vivo): 8 to 12 h
distribution volume ([1]; humans): 0.16 ± 0.02 L/kg
administered dose recovered in the urine ([1]; intravenous dosing): ~98%
administered dose recovered in the urine ([1]; topical dosing): about 88%
